Assay: Deblocking of ester in pH 10.0 carbonate buffer with hydroxylamine (A+C), reaction half-life and rate enhancement
Assay type: physicochemical
Conditions: for reactivity with hydroxylamine vs comparisons: from Table I; for Ratio of the A+B half-life to the A+C half-life (rate enhancement): pH 10.0, 25° C.
Description: Model studies were conducted on esters E-1 through E-6 to determine the possible rate enhancement which could be attained by using a dinucleophile rather than a mononucleophile to promote the removal from a phenolic moiety of a blocking group of this invention. Aqueous solutions A, B, and C, each containing 50% by volume of acetonitrile were prepared as follows (a separate solution A for each ester):
Solution A: 2.5 × 10^-4 M ester (or 2.5 × 10^-5 M E-
Solution B: 25% by volume carbonate buffer
(pH 10.0, ionic strength 0.75);
Solution C: Solution B with added 0.05M
Then equal volumes of A and B (or A and C) were mixed at 25° C. to give a pH 10.0 solution and the reaction was followed by spectrophotometric measurements of the phenol (290 nm) or p-nitrophenol (402 nm) produced with time. In each case a reaction half-life (t1/2) was calculated from the equation t/1/2 =1n(2)/k, where 1n(2) is the natural logarithm of 2 and k is the pseudo first-order rate constant calculated for the reaction. Smaller half-lives thus indicate more rapid reactions. The A+B combination provides an alkaline solution in which the main reactant is hydroxide ion (a mononucleophile) while in the A.C combination the active reactant is hydroxylamine (a dinucleophile). A ratio of the A+B half-life to the A+C half-life provides a measure of rate enhancement due to participation of hydroxylamine in the deblocking reaction.

Row | SMILES | reactivity with hydroxylamine vs comparisons | Ratio of the A+B half-life to the A+C half-life (rate enhancement)
1 | CN(C(=O)N1CCC(=O)C(C)(C(=O)Oc2ccc([N+](=O)[O-])cc2)C1)c1ccccc1 (centres unmarked) [Example E-1] | much more reactive with the dinucleophile hydroxylamine than are the comparisons | 3.8 × 10^4
2 | COc1ccc(C(=O)N2CCC(=O)C(C)(C(=O)Oc3ccc([N+](=O)[O-])cc3)C2)cc1 (centres unmarked) [Example E-2] | much more reactive with the dinucleophile hydroxylamine than are the comparisons | 2.9 × 10^4
3 | CC1(C(=O)Oc2ccc([N+](=O)[O-])cc2)CN(C(=O)OCc2ccc([N+](=O)[O-])cc2)CCC1=O (centres unmarked) [Example E-3] | – | 3.6 × 10^4
4 | CC1(C(=O)Oc2ccc([N+](=O)[O-])cc2)CCCCC1=O (centres unmarked) [Example E-4, reference compound] | – | 2.3 × 10^5
5 | CC(=O)C(C)(C)C(=O)Oc1ccccc1 [Example E-5, reference compound] | – | 3.7 × 10^4
6 | CC(=O)CC(C)(C)C(=O)Oc1ccccc1 [Example E-6, reference compound] | – | 1.7 × 10^2

From US5242783A, “Photographic material and process” (Eastman Kodak Company, priority 1992, dated 1993)
